Measured values from US20100311800A1, “ANGIOTENSIN II RECEPTOR ANTAGONISTS” (priority 2008, published 2010).

Experiments:
[1] = test system: isolated rabbit thoracic aorta preparations; assay: Assay on vascular tone (vessel relaxation assay); assay type: cell-based; settings: Oryctolagus cuniculus; aortic rings precontracted with noradrenaline 1 μM, functional endothelium
Protocol: The ability of the compounds of the invention to induce vasorelaxation in comparison to native angiotensin II receptor blockers (ARBs) was tested in vitro in isolated rabbit thoracic aorta preparations (Wanstall J. C. et al., Br. J. Pharmacol., 134:463-472, 2001). Male New Zealand rabbits were anaesthetized with thiopental-Na (50 mg/kg, iv), sacrificed by exsanguinations and then the thorax was opened and the aorta dissected. Aortic ring preparations (4 mm in length) were set up in physiological salt solution (PSS) at 37° C. in small organ chambers (5 ml). The composition of PSS was (mM): NaCl 130, NaHCO3 14.9, KH2PO4 1.2, MgSO4 1.2, HEPES 10, CaCl2, ascorbic acid […] and glucose 1.1 (95% O2/5% CO2; pH 7.4). Each ring was mounted under 2 g passive tension. Isometric tension was recorded with a Grass transducer (Grass FT03) attached to a BIOPAC MP150 System. Preparations were allowed to equilibrate for 1 h, and then contracted submaximally with noradrenaline (NA, 1 μM) and, when the contraction was stable, acetylcholine (ACh, 10 μM) was added. A relaxant response to ACh indicated the presence of a functional endothelium. […] When a stable precontraction was reached, a cumulative concentration-response curve to either of the vasorelaxant agents was obtained in the presence of a functional endothelium. Each arterial ring was exposed to only one combination of inhibitor and vasorelaxant. Moreover, the effect of the soluble guanylyl cyclase inhibitor ODQ (1-H-(1,2,4)-oxadiazol(4,3-a)quinoxalin-1-one) on vasorelaxation elicited by the compounds was examined preincubating the aortic rings with ODQ (10 μM) for 20 min.
Responses to relaxing agents are expressed as a percentage of residual contraction and plotted against concentration of test compound. EC50 values (where EC50 is the concentration producing 50% of the maximum relaxation to the test compound) were interpolated from these plots. During the experimental period, the plateau obtained with NA was stable without significant spontaneous loss of contraction in the aortic rings.
Furthermore, in experiments performed in the presence of ODQ (10 μM), the vasorelaxant responses to tested compounds were inhibited.

[2] = test system: conscious spontaneously hypertensive rats (SHRs); assay: Assay for antihypertensive activity (in vivo); design: species or system rat; settings: for BP lowering compared to Compound A: SHR, same dose (10 mg/kg) or inferior dose (3 mg/kg)
Protocol: The ability of the compounds of the invention to decrease blood pressure was evaluated in conscious spontaneously hypertensive rats (SHRs). SHRs (250-300 g) received a single oral dose of tested compounds. Systolic blood pressure (SBP) and heart rate were monitored by telemetry for 24 hours after dosing. SBP was evaluated before (baseline) and at different time points (i.e. 2-6, 12, 21-hours) following treatment by oral administration of the compounds. The data were processed both as the absolute value or as a delta between the absolute value and its own baseline.
The Dataquest IV telemetry system (Data Sciences International) was used for measurement of systolic pressure, diastolic pressure, mean arterial pressure, heart rate, and motor activity. The monitoring system consists of a transmitter (radio frequency transducer model TA11PA), receiver panel, consolidation matrix, and personal computer with accompanying software. Before the device was implanted, calibrations were verified to be accurate within ±3 mmHg. Rats were anesthetized with ketamine/xylazine/acepromazine, and the flexible catheter of the transmitter was surgically secured in the abdominal aorta just below the renal arteries. The transmitter was sutured subcutaneously. Rats were housed in individual cages after the operation. Each cage was placed over the receiver panel that was connected to the personal computer for data acquisition. The rats were unrestrained and free to move within their cages. Hemodynamic data were sampled every 2 minutes for 10 seconds.

[3] = test system: Reactive Nitrogen Species (RNS); assay: Assay for Reactive Nitrogen Species (RNS) (DAN assay); assay type: in vivo, rat; design: RNS levels: unit not given here; settings: for RNS levels: EDTA-treated rat plasma
From the text: RNS were detected as S-nitrosothiols (RNSOs) in EDTA-treated rat plasma using an HPLC fluorescent assay based on the method of Kostka and Park (Methods Enzymol. 1999, 301, 227-235). The method is based on the detection of fluorescent 2,3-naphthotriazole (NAT) formed in the reaction between acidified 2,3-diaminonaphthalene (DAN) and the nitrosonium moiety of RSNOs released by HgCl2-mediated breakdown of the S—NO bond. The reaction mixture was chromatographed by reversed phase HPLC, and the fluorescent signal of the resolved NAT peak was quantified.
Plasma (20 μL) was first diluted 1:1 in H2O (20 μL) in a black polypropylene untreated microtiter plate. DAN reagent (100 μL per well, 100 μM DAN in 0.1 N HCl, 4 mM HgCl2) was added, and the plate was immediately sealed with an opaque plate mat, vortexed, and incubated in the dark for 10 min. Plates were centrifuged (2000×g, 5 min) and chilled to 4° C. before HPLC analysis. HPLC was carried out on an Agilent 1200 system using a chilled autosampler (4° C.). Samples were chromatographed on a C8 column (Zorbax Eclipse XDB-C8, 4.6×150 mm, 5 μm) with isocratic elution using a mobile phase of 67% MeOH, 0.1% NH4OAc and a flow rate of 2 mL/min. NAT fluorescence was monitored at 450 nm using an excitation wavelength of 360 nm. Calibration curves were prepared using NaNO2 in control plasma. Typical range of quantitation was 0.1 μM to 30 μM NO2.

[4] = 3 mpk single oral dose, 21-24 h
[5] = 10 mpk single oral dose, 21-24 h

## CCOc1nc2cccc(C(=O)OC(C)(C)OC(=O)OCCCCC(C)O[N+](=O)[O-])c2n1Cc1ccc(-c2ccccc2-c2nnn[nH]2)cc1 (centres unmarked) [Example 2]
[1]
  EC50: 31 µM
[2]; 3 mpk single oral dose, 2-6 h
  Δ SBP in SHR: −30 mmHg
[2]; [4]
  Δ SBP in SHR: −36 mmHg
[2]; 3 mpk single oral dose, 12 h
  Δ SBP in SHR: −34 mmHg
[2]
  BP lowering compared to Compound A: extended peak effect and duration of action

## CCCCc1nc(Cl)c(C(=O)OCCOCCO[N+](=O)[O-])n1Cc1ccc(-c2ccccc2-c2nn[nH]n2)cc1 [Compound A, reference compound]
[3]; time 0 h
  RNS levels: 0.4
[3]; time 1 h
  RNS levels: 2.8
[3]; time 3 h
  RNS levels: 1.4
[3]; time 6 h
  RNS levels: 0.9
[3]; time 24 h
  RNS levels: 0
[2]; 10 mpk single oral dose, 2-6 h
  Δ SBP in SHR: −15 mmHg
[2]; [5]
  Δ SBP in SHR: −8 mmHg
[2]; 10 mpk single oral dose, 12 h
  Δ SBP in SHR: −12 mmHg

## CCCCc1nc(Cl)c(C(=O)OC(C)OC(=O)OCCCC[C@H](C)O[N+](=O)[O-])n1Cc1ccc(-c2ccccc2-c2nn[nH]n2)cc1 (stereo partly drawn) [Example 3, 1-[({[(5S)-5-(nitrooxy)hexyl]oxy}carbonyl)oxy]ethyl 2-butyl-4-chloro-1-{[2′-(1H-tetrazol-5-yl)biphenyl-4-yl]methyl}-1H-imidazole-5-carboxylate]
[1]
  EC50: 39 µM

## CCCCc1nc(Cl)c(COC(=O)C23CC4CC(CC(O[N+](=O)[O-])(C4)C2)C3)n1Cc1ccc(-c2ccccc2-c2nnn[nH]2)cc1 [Example 10, (2-butyl-4-chloro-1-{[2′-(1H-tetrazol-5-yl)biphenyl-4-yl]methyl}-1H-imidazol-5-yl)methyl 3-(nitrooxy)adamantane-1-carboxylate]
[1]
  EC50: 5.3 µM

## CCCCc1nc(Cl)c(C(=O)OC(C)OC(=O)OCCCC[C@@H](C)O[N+](=O)[O-])n1Cc1ccc(-c2ccccc2-c2nnn[nH]2)cc1 (stereo partly drawn) [Example 1, 1-[({[(R)-5-(nitrooxy)hexyl]oxy}carbonyl)oxy]ethyl 2-butyl-4-chloro-1-{[2′-(1H-tetrazol-5-yl)biphenyl-4-yl]methyl}-1H-imidazole-5-carboxylate]
[1]
  EC50: 22 µM

## CCCCc1nc(Cl)c(C(=O)OC(C)OC(=O)OCC[C@H](C)O[N+](=O)[O-])n1Cc1ccc(-c2ccccc2-c2nn[nH]n2)cc1 (stereo partly drawn) [Example 7, 1-[({[(3S)-3-(nitrooxy)butyl]oxy}carbonyl)oxy]ethyl 2-butyl-4-chloro-1-{[2′-(1H-tetrazol-5-yl)biphenyl-4-yl]methyl}-1H-imidazole-5-carboxylate]
[1]
  EC50: 26 µM

## CCCCc1nc(Cl)c(C(=O)OC(C)OC(=O)CCCC(C)O[N+](=O)[O-])n1Cc1ccc(-c2ccccc2-c2nn[nH]n2)cc1 (centres unmarked) [Example 8]
[1]
  EC50: 40 µM
[2]; 10 mpk single oral dose, 2-6 h
  Δ SBP in SHR: −31 mmHg
[2]; [5]
  Δ SBP in SHR: −28 mmHg
[2]; 10 mpk single oral dose, 12 h
  Δ SBP in SHR: −29 mmHg
[2]
  BP lowering compared to Compound A: extended peak effect and duration of action

## CCCCc1nc(Cl)c(C(=O)OC(C)OC(=O)OCC[C@@H](C)O[N+](=O)[O-])n1Cc1ccc(-c2ccccc2-c2nn[nH]n2)cc1 (stereo partly drawn) [Example 6, 1-[({[(3R)-3-(nitrooxy)butyl]oxy}carbonyl)oxy]ethyl 2-butyl-4-chloro-1-{[2′-(1H-tetrazol-5-yl)biphenyl-4-yl]methyl}-1H-imidazole-5-carboxylate]
[1]
  EC50: 23 µM
[2]; 10 mpk single oral dose, 2-6 h
  Δ SBP in SHR: −16 mmHg
[2]; [5]
  Δ SBP in SHR: −17 mmHg
[2]; 10 mpk single oral dose, 12 h
  Δ SBP in SHR: −21 mmHg
[2]
  BP lowering compared to Compound A: extended peak effect and duration of action

## CCOc1nc2cccc(C(=O)OC(C)OC(=O)CCCC(C)O[N+](=O)[O-])c2n1Cc1ccc(-c2ccccc2-c2nn[nH]n2)cc1 (centres unmarked) [Example 9]
[1]
  EC50: 43 µM
[2]; 3 mpk single oral dose, 2-6 h
  Δ SBP in SHR: −43 mmHg
[2]; [4]
  Δ SBP in SHR: −50 mmHg
[2]; 3 mpk single oral dose, 12 h
  Δ SBP in SHR: −49 mmHg
[2]
  BP lowering compared to Compound A: extended peak effect and duration of action

## CCCCc1nc(Cl)c(C(=O)OC(C)OC(=O)OCCC(C)O[N+](=O)[O-])n1Cc1ccc(-c2ccccc2-c2nn[nH]n2)cc1 (centres unmarked) [Example 5, 1-[({[3-(nitrooxy)butyl]oxy}carbonyl)oxy]ethyl 2-butyl-4-chloro-1-{[2′-(1H-tetrazol-5-yl)biphenyl-4-yl]methyl}-1H-imidazole-5-carboxylate]
[1]
  EC50: 22 µM

## CCCCc1nc(Cl)c(C(=O)OC(C)OC(=O)OCCCCC(C)O[N+](=O)[O-])n1Cc1ccc(-c2ccccc2-c2nn[nH]n2)cc1 (centres unmarked) [Example 4, 1-[({[5-(nitrooxy)hexyl]oxy}carbonyl)oxy]ethyl 2-butyl-4-chloro-1-{[2′-(1H-tetrazol-5-yl)biphenyl-4-yl]methyl}-1H-imidazole-5-carboxylate]
[1]
  EC50: 27 µM
[3]; time 0 h
  RNS levels: 0.9
[3]; time 1 h
  RNS levels: 6.9
[3]; time 3 h
  RNS levels: 6.9
[3]; time 6 h
  RNS levels: 2.4
[3]; time 24 h
  RNS levels: 1.6
[3]; rat plasma
  RNS levels compared to Compound A: improved RNS levels
[2]; 10 mpk single oral dose, 2-6 h
  Δ SBP in SHR: −10 mmHg
[2]; [5]
  Δ SBP in SHR: −30 mmHg
[2]; 10 mpk single oral dose, 12 h
  Δ SBP in SHR: −30 mmHg
[2]
  BP lowering compared to Compound A: extended peak effect and duration of action
